Laboratory results reported in patent EP4595983A1, “NANOPARTICLES FUNCTIONALISED WITH A STABILISING AGENT AND A TARGETING AGENT” (BXTA Nanotherapy Limited, priority 2024, dated 2025).
Peptide text beside a SMILES is read from it. * marks the point of attachment. Palmitoyl = CCCCCCCCCCCCCCCC(=O)*

Columns and labels:
PC3 cells = test: Alamar blue viability assay; format: cell-based; conditions: 6 h; for cell viability (significance): 150 nM, 300 nM and 600 nM; for reduction in viability: 300 nM
Procedure: (§1) Alamar blue viability assays assessed the impact of inhibiting CXCL8 pro-inflammatory signalling on the viability of various PCa cell lines (Figure 28). Three increasing concentrations of pepducin (150 nM, 300 nM and 600 nM) were assayed following a 6 h incubation. Following exposure to pepducin cells were washed in PBS and 10% Alamar blue solution added for 4 h. Fluorescence was then measured at 540 - 570 nm. […] (N = 4 +/- SEM).

various PCa cell lines = test: Alamar blue viability assay; format: cell-based; conditions: 150 nM, 300 nM and 600 nM, 6 h incubation
Procedure: as §1

DU145 parental cells = test: Alamar blue viability assay; format: cell-based; conditions: pepducin exposure; comparative pepducin effect at both 300 nM and 600 nM
Procedure: as §1
(§2) Following exposure to pepducins, cells were washed in PBS and 10% Alamar blue solution added for 4 h. Fluorescence was then measured at 540 - 570 nm. […] (N=4 +/- SEM).

NT01 = test: Alamar blue viability assay; format: cell-based; conditions: pepducin exposure; comparative pepducin effect at both 300 nM and 600 nM
Procedure: as §1, §2

sh1102 cells = test: Alamar blue viability assay; format: cell-based; conditions: pepducin exposure; comparative pepducin effect at both 300 nM and 600 nM
Procedure: as §1, §2

[1] = Solubility (peptide characteristics); format: physicochemical

Solubility [1]	Molecule	cell viability (significance) (PC3 cells)	cell viability (various PCa cell lines)	cell viability / toxicity (DU145 parental cells)	cell viability / toxicity (NT01)	cell viability / toxicity (sh1102 cells)	reduction in viability (PC3 cells) [%]
–	scrambled control: scrambled control (corresponding to SEQ ID 7) (Palmitoyl-TRFLAKMHQGHKRC-NH2; SMILES CCCCCCCCCCCCCCCC(=O)N[C@H](C(=O)N[C@@H](CCCNC(=N)N)C(=O)N[C@@H](Cc1ccccc1)C(=O)N[C@@H](CC(C)C)C(=O)N[C@@H](C)C(=O)N[C@@H](CCCCN)C(=O)N[C@@H](CCSC)C(=O)N[C@@H](Cc1c[nH]cn1)C(=O)N[C@@H](CCC(N)=O)C(=O)NCC(=O)N[C@@H](Cc1c[nH]cn1)C(=O)N[C@@H](CCCCN)C(=O)N[C@@H](CCCNC(=N)N)C(=O)N[C@@H](CS)C(N)=O)[C@@H](C)O)	no significant affects	did not significantly reduce cell viability	did not show any significant toxicity	did not show any significant toxicity	did not show any significant toxicity	–
1:4 (Acetonitirile:H2O)	CCCCCCCCCCCCCCCC(=O)N[C@@H](CCCNC(=N)N)C(=O)N[C@H](C(=O)N[C@@H](CC(C)C)C(=O)N[C@@H](Cc1ccccc1)C(=O)N[C@@H](CCCCN)C(=O)N[C@@H](C)C(=O)N[C@@H](Cc1c[nH]cn1)C(=O)N[C@@H](CCSC)C(=O)NCC(=O)N[C@@H](CCC(N)=O)C(=O)N[C@@H](CCCCN)C(=O)N[C@@H](Cc1c[nH]cn1)C(=O)N[C@@H](CCCNC(=N)N)C(=O)N[C@@H](CS)C(N)=O)[C@@H](C)O [SEQ ID 3, Pal-RTLFKAHMGQKHRC-NH2] (Palmitoyl-RTLFKAHMGQKHRC-NH2)	no significant reduction in viability	did not significantly reduce cell viability	did not show any significant toxicity	did not show any significant toxicity	did not show any significant toxicity	8
–	CCCCCCCCCCCCCCCC(=O)N[C@@H](CCCNC(=N)N)C(=O)N[C@H](C(=O)N[C@@H](CC(C)C)C(=O)N[C@@H](Cc1ccccc1)C(=O)N[C@@H](CCCCN)C(=O)N[C@@H](C)C(=O)N[C@@H](Cc1c[nH]cn1)C(=O)N[C@@H](CCSC)C(=O)NCC(=O)N[C@@H](CCC(N)=O)C(=O)N[C@@H](CCCCN)C(=O)N[C@@H](Cc1c[nH]cn1)C(=O)N[C@@H](CCCNC(=N)N)C(N)=O)[C@@H](C)O [comparative pepducin] (Palmitoyl-RTLFKAHMGQKHR-NH2)	–	did not significantly reduce cell viability	significantly reduced cell viability	significantly reduced cell viability	significantly reduced cell viability	25
